Key:
CobR (corrin reductase) [1] = molecular target: T1, CobR (corrin reductase) (Brucella melitensis, UniProt Q8YHT7); details: reference without excess FAD 70 °C, 50 mM NaPi, 100 mM NaCl pH 6.5, 125°/h, irreversible unfolding
T1 construct: gene BMEI0709

CobR (corrin reductase) [2] = molecular target: T1, CobR (corrin reductase); details: crystals grown with 2 mM FAD, pH 4.6; FAD in both active sites; second site (additional folded FAD per subunit)

T1 sequence (Q8YHT7 1-173): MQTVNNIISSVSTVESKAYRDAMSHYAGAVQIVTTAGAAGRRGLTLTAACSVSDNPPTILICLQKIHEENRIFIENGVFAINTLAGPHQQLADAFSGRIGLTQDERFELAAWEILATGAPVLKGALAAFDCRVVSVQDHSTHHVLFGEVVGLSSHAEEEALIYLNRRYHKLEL

Cc1cc2nc3c(=O)[nH]c(=O)nc-3n(C[C@H](O)[C@H](O)[C@H](O)COP(=O)(O)OP(=O)(O)OC[C@H]3O[C@@H](n4cnc5c(N)ncnc54)[C@H](O)[C@@H]3O)c2cc1C [FAD]
apparent Tm with excess FAD (CobR (corrin reductase) [1]): 80 °C
X-ray crystallography, 2.2 Å (CobR (corrin reductase) [2]): FAD is seen occupying both active sites of the homodimer

From publication PMC4083273 (Bioscience Reports, 2014)
